Source: patent US10894817B2, “Fatty acid modified urocortin-2 analogs for the treatment of diabetes and chronic kidney disease” (priority 2016, dated 2021)
Starred links: 1 amine or outer side, 2 acyl side, 3 side chain; linkers in the order of their positions; H or OH if unused. Non-standard residues stand in square brackets, D forms with d. Residues, ends and D or L forms follow the SMILES beside them. Groups on a side chain read outwards from the residue. *: point of attachment. C20 diacid = O=C(O)CCCCCCCCCCCCCCCCCCC(=O)*; C18 diacid = O=C(O)CCCCCCCCCCCCCCCCC(=O)*; γGlu = O=C(O)[C@H](CCC(=O)[*:2])N[*:1]; NMeI = CC[C@H](C)[C@H](NC)C(=O)O; AEEA = NCCOCCOCC(=O)O

Legend:
[1] = target: T1, human CRHR2b (Homo sapiens, UniProt Q13324); assay: human CRHR2b cell-based cAMP assay; settings: cAMP assay, CHO cells transfected with human CRHR2b; mean ± SEM of runs; read-out: hCRHR2b Average EC50
T1 construct: expressed in transfected cells; host or cells: Chinese Hamster Ovary (CHO) cells, transient transfection
T1 sequence (Q13324 1-438 isoform Q13324-2): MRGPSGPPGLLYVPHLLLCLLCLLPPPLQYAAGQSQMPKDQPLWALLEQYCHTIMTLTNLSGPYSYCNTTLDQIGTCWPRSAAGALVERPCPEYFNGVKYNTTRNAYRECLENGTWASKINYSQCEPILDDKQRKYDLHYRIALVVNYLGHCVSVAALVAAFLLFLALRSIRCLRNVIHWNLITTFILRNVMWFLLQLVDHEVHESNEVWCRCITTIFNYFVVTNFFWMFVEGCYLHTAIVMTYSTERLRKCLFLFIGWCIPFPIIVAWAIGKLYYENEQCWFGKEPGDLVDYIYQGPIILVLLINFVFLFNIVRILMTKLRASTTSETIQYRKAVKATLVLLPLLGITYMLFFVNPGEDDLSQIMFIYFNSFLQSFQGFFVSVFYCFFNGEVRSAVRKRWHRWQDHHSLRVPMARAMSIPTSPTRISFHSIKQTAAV
Outline: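 ED50 values are means ± SEM over several runs, curve-fitted from cAMP in pmol, calibrated against unlabeled-cAMP standards. Detection was HTRF competition, ratio 665/620 nm, after 30 min agonist exposure at 37 °C.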

[2] = Pharmacokinetics, single subcutaneous dose, mice; settings: male, CD-1, mouse, plasma, sc, 388 nmol/kg
[3] = target: T2, human CRHR1 (Homo sapiens, UniProt P34998); assay: human CRHR1 cell-based cAMP assay (Y79 cells); settings: Y79 cells with endogenous human CRHR1, mean ± SEM of runs, read-out: hCRHR1 Average EC50
T2 construct: which expresses endogenous human CRHR1; host or cells: Y79 human retinoblastoma cells
T2 sequence (P34998 24-415): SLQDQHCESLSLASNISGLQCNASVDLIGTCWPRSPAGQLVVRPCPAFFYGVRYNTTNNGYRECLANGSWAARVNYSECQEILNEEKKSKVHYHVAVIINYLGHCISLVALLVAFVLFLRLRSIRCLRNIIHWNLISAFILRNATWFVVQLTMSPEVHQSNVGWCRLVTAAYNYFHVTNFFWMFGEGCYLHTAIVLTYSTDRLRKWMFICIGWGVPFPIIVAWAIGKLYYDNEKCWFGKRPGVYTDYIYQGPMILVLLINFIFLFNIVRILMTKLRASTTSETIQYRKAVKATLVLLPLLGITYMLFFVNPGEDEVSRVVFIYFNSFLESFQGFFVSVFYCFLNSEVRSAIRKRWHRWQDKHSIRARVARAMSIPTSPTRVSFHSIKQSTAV
Protocol: CRHR agonistic activity is measured in a cell-based cAMP assay. Serial dilutions of the test peptides are made in assay buffer containing Hank's Balanced Salt Solution (HBSS, without phenol red) supplemented with 20 mM HEPES and 0.05% lactalbumin enzymatic hydrolysate (LAH) (“assay buffer”). The highest concentration that is used starts from 1 μM in the human CRHR2b, whereas 100 μM starting concentration is used in the human CRHR1 assay. A one to three dilution of the test peptides is used in both assays.
The human Retinoblastoma cell line Y79 (ATCC #HTB-18), which expresses endogenous human CRHR1, is used in the human CRHR1 assay. The cells are grown in RPMI 1640 (Hyclone, #SH30255) containing 20% fetal bovine serum and 10 mM HEPES, in suspension culture. Cells are centrifuged to remove the culture media and washed once in HBSS supplemented with 20 mM HEPES. The cells are resuspended in the assay buffer and 20,000 cells are used per treatment in the human CRHR1 assay.
The cells are dispensed into Costar 96-well black polystyrene half area EIA/RIA plates (Corning Incorporated, Corning, N.Y.) followed by the addition of the diluted peptides, each at a volume of 20 μL. The agonist induced cAMP levels are detected using a HTRF cAMP Dynamic 2 kit (CisBio, Bedford, Mass.). After incubation at 37° C. for 30 min, the assay is stopped by cell lysis via the addition of 20 μL of d2-labeled cAMP and followed by 20 μL of cryptate-labeled anti-cAMP antibody, as described by the manufacturer. Cellular cAMP (as a result of agonist stimulation) competes with the d2-labeled cAMP for binding to the antibody. HTRF detection is performed on an Envision plate reader (Perkin Elmer Life and Analytical Sciences, Waltham, Mass.) by measuring ratiometric emission at 620 and 665 nm after excitation at 320 nm.
The data are converted to picomoles of cAMP using a standard curve obtained from the same assay performed with varying concentrations of unlabeled cAMP. Percent of the maximum activation of the cells is calculated using converted picomole cAMP data by comparing to the amount of cAMP produced by 1 μM human UCN2 for the human CRHR2b or 1 μM human UCN1 for the human CRHR1 assay. The data are analyzed using a Curve Fitting Tool to calculate ED50. Numeric values shown below in Table 1 represent the mean of multiple runs (number of runs shown in parentheses) following the mean value±SEM.

EC50 [1] | AUC(0-inf) [2] | CL/F [2] | Cmax [2] | Tmax [2] | half-life [2] | EC50 [3] | SMILES
2.44 ± 1.36 nM | 32.2 µM·h | 0.202 mL/min/kg | 1150 nM | 12 h | 16 h | – | CC[C@H](C)[C@H](NC(C)=O)C(=O)N[C@H](C(=O)N[C@@H](CC(C)C)C(=O)N[C@@H](CO)C(=O)N[C@@H](CC(C)C)C(=O)N[C@@H](CC(=O)O)C(=O)N[C@H](C(=O)N1CCC[C@H]1C(=O)N[C@H](C(=O)NCC(=O)N[C@@H](CC(C)C)C(=O)N[C@@H](CC(C)C)C(=O)N[C@@H](CCC(N)=O)C(=O)N[C@H](C(=O)N[C@@H](CC(C)C)C(=O)N[C@@H](CC(C)C)C(=O)N[C@@H](CCC(=O)O)C(=O)N[C@@H](CCC(N)=O)C(=O)N[C@@H](CCC(=O)O)C(=O)N[C@@H](CCCCN)C(=O)N[C@@H](CCC(N)=O)C(=O)N[C@@H](CCC(=O)O)C(=O)N[C@@H](CCCCN)C(=O)N[C@@H](CCC(=O)O)C(=O)N[C@@H](CCCCN)C(=O)N[C@@H](CCC(N)=O)C(=O)N[C@@H](CCC(N)=O)C(=O)N[C@@H](C)C(=O)N[C@@H](CCCCNC(=O)COCCOCCNC(=O)COCCOCCNC(=O)CC[C@H](NC(=O)CC[C@H](NC(=O)CCCCCCCCCCCCCCCCC(=O)O)C(=O)O)C(=O)O)C(=O)N[C@H](C(=O)N[C@@H](CC(N)=O)C(=O)N[C@@H](C)C(=O)N[C@@H](CCC(N)=O)C(=O)N[C@H](C(=O)N[C@@H](CC(C)C)C(=O)N[C@@H](C)C(=O)N[C@@H](CCC(N)=O)C(=O)N[C@H](C(N)=O)C(C)C)[C@@H](C)CC)[C@@H](C)O)[C@@H](C)CC)[C@@H](C)CC)C(C)C)C(C)C [Example 1] (Ac-IVLSLDVPIGLLQILLEQEKQEKEKQQAK([AEEA-AEEA-γGlu-γGlu-C18 diacid])TNAQILAQV-NH2)
2.5 ± 1.06 nM | – | – | – | – | – | > 100000 nM | CC[C@H](C)[C@H](NC)C(=O)N[C@H](C(=O)N[C@@H](CC(C)C)C(=O)N[C@@H](CO)C(=O)N[C@@H](CC(C)C)C(=O)N[C@@H](CC(=O)O)C(=O)N[C@H](C(=O)N1CCC[C@H]1C(=O)N[C@H](C(=O)NCC(=O)N[C@@H](CC(C)C)C(=O)N[C@@H](CC(C)C)C(=O)N[C@@H](CCC(N)=O)C(=O)N[C@H](C(=O)N[C@@H](CC(C)C)C(=O)N[C@@H](CC(C)C)C(=O)N[C@@H](CCC(=O)O)C(=O)N[C@@H](CCC(N)=O)C(=O)N[C@@H](CCC(=O)O)C(=O)N[C@@H](CCCCN)C(=O)N[C@@H](CCC(N)=O)C(=O)N[C@@H](CCC(=O)O)C(=O)N[C@@H](CCCCN)C(=O)N[C@@H](CCC(=O)O)C(=O)N[C@@H](CCCCN)C(=O)N[C@@H](CCC(N)=O)C(=O)N[C@@H](CCC(N)=O)C(=O)N[C@@H](C)C(=O)N[C@@H](CCCCNC(=O)COCCOCCNC(=O)COCCOCCNC(=O)CC[C@H](NC(=O)CC[C@H](NC(=O)CCCCCCCCCCCCCCCCCCC(=O)O)C(=O)O)C(=O)O)C(=O)N[C@H](C(=O)N[C@@H](CC(N)=O)C(=O)N[C@@H](C)C(=O)N[C@@H](CCC(=O)O)C(=O)N[C@H](C(=O)N[C@@H](CC(C)C)C(=O)N[C@@H](C)C(=O)N[C@@H](CCC(N)=O)C(=O)N[C@H](C(N)=O)C(C)C)[C@@H](C)CC)[C@@H](C)O)[C@@H](C)CC)[C@@H](C)CC)C(C)C)C(C)C [Example 6] (H-[NMeI]VLSLDVPIGLLQILLEQEKQEKEKQQAK([AEEA-AEEA-γGlu-γGlu-C20 diacid])TNAEILAQV-NH2)
